According to the NIST ThermoML archive (doi:10.1021/je2013704):

Assay: mn = molality of the nth substance listed, in mol/kg
Settings: Liquid, Vibrating tube method

[Cl][Al]([Cl])[Cl] [aluminum chloride] + O
mass density [kg/m3]
Settings | 900 kPa | 9900 kPa | 19900 kPa | 29900 kPa | 39900 kPa | 49900 kPa | 59900 kPa | 68400 kPa
298.12 K, m1 = 1 | 1105.53 | 1108.79 | 1112.3 | 1115.82 | 1119.28 | 1122.69 | 1125.95 | 1128.83
298.12 K, m1 = 2 | 1212.19 | 1214.96 | 1217.92 | 1220.94 | 1223.85 | 1226.72 | 1229.57 | 1232.02
323.07 K, m1 = 1 | 1096.76 | 1099.96 | 1103.44 | 1106.84 | 1110.31 | 1113.67 | 1116.93 | 1119.6
323.07 K, m1 = 2 | 1203.26 | 1206.02 | 1209.01 | 1211.9 | 1214.88 | 1217.8 | 1220.6 | 1222.88
348.04 K, m1 = 1 | 1085.66 | 1088.98 | 1092.48 | 1096.02 | 1099.44 | 1102.74 | 1106.07 | 1108.86
348.04 K, m1 = 2 | 1192.82 | 1196 | 1199.11 | 1202.1 | 1205.07 | 1207.92 | 1210.85 | 1213.26
372.99 K, m1 = 1 | 1072.64 | 1075.97 | 1079.63 | 1083.19 | 1086.72 | 1090.2 | 1093.58 | 1096.34
372.99 K, m1 = 2 | 1181.64 | 1184.73 | 1187.9 | 1191.11 | 1194.19 | 1197.22 | 1200.14 | 1202.66

[Cl-].[K+] [potassium chloride] + O
mass density [kg/m3]
Settings | 298.12 K | 323.07 K | 348.04 K | 372.99 K | 397.97 K | 422.94 K | 447.94 K | 472.96 K
900 kPa, m1 = 1.06 | 1044.2 | 1034.14 | 1020.74 | 1004.76 | 986.31 | 965.57 | 942.89 | –
900 kPa, m1 = 3.15 | 1124.07 | 1112.58 | 1098.82 | 1083.32 | 1065.9 | 1046.73 | 1025.62 | –
900 kPa, m1 = 4.49 | 1168.21 | 1156.09 | 1142.21 | 1126.88 | 1109.9 | 1091.46 | 1071.39 | –
9900 kPa, m1 = 1.06 | 1047.96 | 1037.83 | 1024.46 | 1008.64 | 990.53 | 970.25 | 948.08 | 923.68
9900 kPa, m1 = 3.15 | 1127.47 | 1115.91 | 1102.28 | 1086.89 | 1069.71 | 1050.87 | 1030.11 | 1007.94
9900 kPa, m1 = 4.49 | 1171.42 | 1159.3 | 1145.43 | 1130.26 | 1113.48 | 1095.41 | 1075.5 | 1054.54
19900 kPa, m1 = 1.06 | 1052.02 | 1041.82 | 1028.51 | 1012.91 | 995.11 | 975.13 | 953.62 | 929.93
19900 kPa, m1 = 3.15 | 1131.16 | 1119.53 | 1105.97 | 1090.74 | 1073.82 | 1055.23 | 1034.96 | 1013.25
19900 kPa, m1 = 4.49 | 1174.92 | 1162.77 | 1148.98 | 1133.92 | 1117.4 | 1099.54 | 1080.06 | 1059.47
29900 kPa, m1 = 1.06 | 1056.08 | 1045.67 | 1032.5 | 1017.11 | 999.53 | 979.97 | 958.88 | 935.86
29900 kPa, m1 = 3.15 | 1134.81 | 1123.11 | 1109.59 | 1094.53 | 1077.73 | 1059.51 | 1039.57 | 1018.38
29900 kPa, m1 = 4.49 | 1178.38 | 1166.16 | 1152.52 | 1137.58 | 1121.12 | 1103.53 | 1084.38 | 1064.17
39900 kPa, m1 = 1.06 | 1060 | 1049.58 | 1036.42 | 1021.1 | 1003.82 | 984.63 | 963.97 | 941.62
39900 kPa, m1 = 3.15 | 1138.35 | 1126.71 | 1113.24 | 1098.25 | 1081.65 | 1063.66 | 1044.09 | 1023.39
39900 kPa, m1 = 4.49 | 1181.79 | 1169.63 | 1155.93 | 1141.11 | 1124.86 | 1107.49 | 1088.62 | 1068.85
49900 kPa, m1 = 1.06 | 1063.86 | 1053.35 | 1040.18 | 1025.08 | 1008.02 | 989.18 | 968.88 | 947.07
49900 kPa, m1 = 3.15 | 1141.9 | 1130.16 | 1116.68 | 1101.91 | 1085.49 | 1067.79 | 1048.45 | 1028.19
49900 kPa, m1 = 4.49 | 1185.09 | 1172.93 | 1159.38 | 1144.58 | 1128.56 | 1111.34 | 1092.74 | 1073.32
59900 kPa, m1 = 1.06 | 1067.62 | 1057.01 | 1043.91 | 1028.91 | 1012.1 | 993.52 | 973.66 | 952.36
59900 kPa, m1 = 3.15 | 1145.28 | 1133.6 | 1120.15 | 1105.38 | 1089.26 | 1071.77 | 1052.77 | 1032.84
59900 kPa, m1 = 4.49 | 1188.28 | 1176.14 | 1162.56 | 1147.95 | 1132.08 | 1115.08 | 1096.73 | 1077.68
68400 kPa, m1 = 1.06 | 1070.84 | 1060.07 | 1047.14 | 1032.17 | 1015.46 | 997.11 | 977.57 | 956.79
68400 kPa, m1 = 3.15 | 1148.2 | 1136.35 | 1123.07 | 1108.37 | 1092.3 | 1075 | 1056.27 | 1036.57
68400 kPa, m1 = 4.49 | 1191.12 | 1178.8 | 1165.39 | 1150.77 | 1135 | 1118.18 | 1100.1 | 1081.18

[Cl-].[Cl-].[Mg+2] [magnesium chloride] + O
mass density [kg/m3]
Settings | 283.15 K | 298.12 K | 323.07 K | 348.04 K | 372.99 K | 397.97 K | 422.94 K | 447.94 K | 472.96 K
1050 kPa, m1 = 1 | 1074.73 | 1070.86 | 1061.56 | 1049.32 | 1034.76 | 1017.83 | 999.03 | – | –
1050 kPa, m1 = 5 | – | 1298.01 | 1288.53 | 1278.25 | 1267.42 | 1255.66 | 1243.3 | 1230.19 | –
1100 kPa, m1 = 3 | 1200.48 | 1194.98 | 1185.53 | 1174.63 | 1162.6 | 1149.22 | 1134.62 | 1118.93 | –
10020 kPa, m1 = 1 | 1078.32 | 1074.43 | 1065.03 | 1052.8 | 1038.36 | 1021.72 | 1003.28 | 982.73 | 960.31
10020 kPa, m1 = 5 | – | 1300.39 | 1290.86 | 1280.63 | 1269.83 | 1258.16 | 1245.98 | 1232.81 | 1219.23
10100 kPa, m1 = 3 | 1203.26 | 1197.76 | 1188.36 | 1177.48 | 1165.51 | 1152.27 | 1137.91 | 1122.27 | 1105.72
19970 kPa, m1 = 1 | 1082.31 | 1078.17 | 1068.73 | 1056.56 | 1042.33 | 1025.91 | 1007.77 | 987.82 | 965.92
19970 kPa, m1 = 5 | – | 1302.84 | 1293.39 | 1283.18 | 1272.48 | 1260.88 | 1248.69 | 1235.76 | 1222.3
20100 kPa, m1 = 3 | 1206.45 | 1200.84 | 1191.36 | 1180.55 | 1168.64 | 1155.47 | 1141.36 | 1126 | 1109.63
29900 kPa, m1 = 1 | 1086.21 | 1081.96 | 1072.46 | 1060.31 | 1046.17 | 1029.97 | 1012.16 | 992.59 | 971.25
29900 kPa, m1 = 5 | – | 1305.37 | 1295.97 | 1285.71 | 1275.12 | 1263.46 | 1251.46 | 1238.61 | 1225.27
30100 kPa, m1 = 3 | 1209.48 | 1203.93 | 1194.33 | 1183.56 | 1171.77 | 1158.76 | 1144.67 | 1129.62 | 1113.5
39830 kPa, m1 = 1 | 1090.04 | 1085.7 | 1076 | 1063.92 | 1049.91 | 1033.96 | 1016.47 | 997.27 | 976.5
39830 kPa, m1 = 5 | – | 1307.91 | 1298.44 | 1288.26 | 1277.64 | 1266.15 | 1254.16 | 1241.42 | 1228.28
40100 kPa, m1 = 3 | 1212.45 | 1206.91 | 1197.32 | 1186.6 | 1174.82 | 1162.02 | 1147.96 | 1133.07 | 1117.27
49760 kPa, m1 = 1 | 1093.73 | 1089.34 | 1079.49 | 1067.47 | 1053.59 | 1037.86 | 1020.62 | 1001.73 | 981.41
49760 kPa, m1 = 5 | – | 1310.34 | 1300.8 | 1290.69 | 1280.15 | 1268.74 | 1256.84 | 1244.17 | 1231.18
50100 kPa, m1 = 3 | 1215.49 | 1209.79 | 1200.25 | 1189.47 | 1177.87 | 1165.1 | 1151.23 | 1136.51 | 1120.96
59680 kPa, m1 = 1 | 1097.42 | 1092.83 | 1082.98 | 1070.97 | 1057.17 | 1041.6 | 1024.61 | 1006.15 | 986.2
59680 kPa, m1 = 5 | – | 1312.81 | 1303.27 | 1293.17 | 1282.6 | 1271.25 | 1259.41 | 1246.88 | 1234.02
60100 kPa, m1 = 3 | 1218.46 | 1212.66 | 1203.13 | 1192.42 | 1180.77 | 1168.09 | 1154.39 | 1139.92 | 1124.6
68120 kPa, m1 = 1 | 1100.57 | 1095.78 | 1085.82 | 1073.88 | 1060.13 | 1044.71 | 1027.95 | 1009.73 | 990.1
68120 kPa, m1 = 5 | – | 1314.82 | 1305.22 | 1295.26 | 1284.68 | 1273.36 | 1261.6 | 1249.11 | 1236.38
68600 kPa, m1 = 3 | 1220.98 | 1215.18 | 1205.42 | 1194.89 | 1183.21 | 1170.63 | 1157.07 | 1142.62 | 1127.48
